Reference: US20260132103A1, “Bumetanide Derivatives for the Therapy of Stroke and Other Neurological Diseases/Disorders Involving NKCCs” (University of Pittsburgh - Of the Commonwealth System of …, priority 2018, published 2026)

How the values were obtained:
GL26 and SB28-GFP cells = experiment: Rubidium uptake assay (Rb+ influx); format: cell-based, mouse
Description: FIGS. 4A-4B: Rb^+ influx was measured in GL26 and SB28-GFP cells in either isotonic (10 min) or hypertonic (5 min) solutions using ICR 8000 machine. (4A) Cells were exposed to isotonic or hypertonic solutions with BMT (10 μM) or STS66 (10 μM). (4B) Cells were exposed to isotonic or hypertonic solutions with different concentrations of STS66 (0 to 40 μM). Results are expressed as means±SEM from four independent experiments. **P<0.01, ***P<0.001, ****P<0.0001.
FIG. 5: GL26 cells and SB28-GFP cells were first exposed to BMT (10 μM) and different concentration of STS66 (10, 20 and 40 μM) for 48 h, and Rb^+ influx was measured in either isotonic (10 min) or hypertonic (5 min) solutions using ICR 8000 machine. Results are expressed as means±SEM from four independent experiments. *P<0.05, **P<0.01, ***P<0.001, ****P<0.0001.
GL26 and SB28-GFP cells were seeded in 24-well plates and the rubidium uptake assay was performed on cells that were 60% confluent. TMZ was added to cells for 48 hr incubation. The medium was then removed from the wells and washed with wash buffer (Rb^+ free). After wash buffer was aspirated, isotonic and hypertonic solutions (contain Rb^+) with BMT were added, and cells were incubated at 37° C. for 5 min. […] The Rb^+ concentration was measured using an automated atomic absorption spectrophotometer (Ion Channel Reader, ICR-8000; Aurora Biomed, Vancouver, Canada).

[1] = tested on: transient focal cerebral ischemia (tMCAO) in mice; experiment: Grid walking foot-fault test after tMCAO; format: in vivo, mouse; conditions: day 3 post-stroke
From the text: FIGS. 2A-2D: Efficacy of NKCC1 inhibitors on improving neurological function in mice after tMCAO (see Example 3). (A) Neurological score, (B) corner test, (C) foot-fault test, and (D)-(E) adhesive tape test during 1-14 day after tMCAO. Data are mean±SD, n=4-9. *p<0.05 for DMSO vs STS66, **p<0.05 for DMSO vs STS5, ***p<0.05 for DMSO vs BMT, #p<0.05 for BMT vs STS66, ###p<0.05 for STS5 vs STS66.
Transient focal cerebral ischemia was induced in mice by intraluminal occlusion of the left middle cerebral artery (MCA) for 50 min as described previously (Chen H et al., 2005). Mice were anesthetized with 3% isoflurane in 70%: 30% N2O/O2 until they were unresponsive to the tail pinch test. Animals were then fitted with a nose cone blowing 1.5% isoflurane for anesthesia maintenance. The left common carotid artery was exposed and the occipital artery branches of the external carotid artery were isolated and coagulated. The internal carotid artery was isolated and the extracranial branch was dissected and ligated. […]
The grid walking test is sensitive to deficits in descending motor control. […] The data were expressed as the number of foot fault errors made by the forelimbs contralateral to the injured hemisphere as a percentage of total steps (Jun Zhang, et al., 2017).

SMILES: CCCCNc1cc(CNCC(F)(F)F)cc(S(N)(=O)=O)c1Oc1ccccc1 [STS66, 3-(Butylamino)-2-phenoxy-5-[(2,2,2-trifluoroethylamino)methyl]benzenesulfonamide]
- Rb+ influx inhibition, 48 h incubation (GL26 and SB28-GFP cells; drugs incubated for 48 h, BMT 10 μM, STS66 10, 20 and 40 μM): inhibited the Rb^+ influx better than BMT
- Rb+ influx inhibition, short incubation (GL26 and SB28-GFP cells; drugs incubated for short time: isotonic (10 min) or hypertonic (5 min) solutions, STS66 0 to 40 μM): does not inhibit Rb^+ influx
- foot-fault rate [1]: 12.5±2.5%
